Common to all, as to assay type: cell-based
The target of one assay is T1, ABCA4 P1380L (Homo sapiens, UniProt P78363, P1380L).
T1 construct: expressed in transfected cells
As to the kind of experiment: A4 correction dose-response assay: ABCA4 P1380L HiBit protein expression. The conditions noted are these: HEK-293 cells stably expressing HiBit-tagged ABCA4 P1380L; 24 h treatment; top concentration 30 μM; read-out: ABCA4 P1380L EC50, Emax. An outline of the steps:
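Cells transfected with HiBit-tagged human ABCA4 P1380L cDNA were treated for 24 h at 37°C with an eleven-point dilution series (top final 30 μM, 0.3% DMSO).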

In a further assay the target is T2, ABCD2 WT (Homo sapiens, UniProt Q9UBJ2).
T2 construct: expressed in transfected cells
T2 sequence (Q9UBJ2 1-740): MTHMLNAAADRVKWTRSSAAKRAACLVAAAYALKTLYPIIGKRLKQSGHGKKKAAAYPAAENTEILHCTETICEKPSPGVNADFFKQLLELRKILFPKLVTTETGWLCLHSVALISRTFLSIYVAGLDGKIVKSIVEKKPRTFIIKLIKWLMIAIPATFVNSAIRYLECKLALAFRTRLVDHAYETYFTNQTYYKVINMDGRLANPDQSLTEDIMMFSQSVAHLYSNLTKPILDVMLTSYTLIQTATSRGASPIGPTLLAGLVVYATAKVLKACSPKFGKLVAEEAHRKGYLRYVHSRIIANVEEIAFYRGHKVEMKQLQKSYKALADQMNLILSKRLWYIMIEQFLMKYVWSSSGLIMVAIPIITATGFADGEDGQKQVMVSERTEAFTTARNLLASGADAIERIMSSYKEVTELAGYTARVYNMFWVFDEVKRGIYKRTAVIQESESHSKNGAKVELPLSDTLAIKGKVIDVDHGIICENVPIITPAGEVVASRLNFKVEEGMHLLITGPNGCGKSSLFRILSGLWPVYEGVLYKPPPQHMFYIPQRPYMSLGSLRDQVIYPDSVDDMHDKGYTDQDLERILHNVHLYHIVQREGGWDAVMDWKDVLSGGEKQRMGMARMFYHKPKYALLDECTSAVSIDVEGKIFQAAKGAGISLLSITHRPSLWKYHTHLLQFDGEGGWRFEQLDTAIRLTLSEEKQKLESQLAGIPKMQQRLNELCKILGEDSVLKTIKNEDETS
In words: D2 correction dose-response assay: ABCD2 WT HiBit protein expression. The note with it: HEK-293/ABCD2 WT cells, 24 hours treatment, HiBit luminescence; class combines EC50 and Mean MaxAct (fold); read-out: ABCD2 WT EC50, Emax. An outline of the steps:
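HEK-293 cells stably expressing HiBit-tagged human ABCD2 WT were treated with 11 doses (3-fold dilutions, top final 30 μM, 0.3% DMSO) for 24 h at 37 °C. Expression was measured by HiBit lytic luminescence after 1 h at 25 °C, giving EC50 and Emax.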

In another assay the target is T3, ABCB4 WT (Homo sapiens, UniProt P21439).
T3 construct: expressed in transfected cells
In words: ABCB4 WT assay: HiBit protein expression. The conditions noted are these: HEK-293 cells stably expressing HiBit-tagged ABCB4 WT; 24 h treatment; top concentration 30 μM; read-out: ABCB4 WT EC50, Emax. The procedure, abridged: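 HEK-293 cells stably expressing HiBit-tagged human ABCB4 WT, treated 24 h at 37 °C with 11-dose 3-fold dilutions, top final 30 μM in 0.3% DMSO. HiBit lytic reagent luminescence read after 1 h at 25 °C; Emax and EC50 derived.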
Background: With HiBiT, luminescence reflects the tagged protein that the partner subunit can reach.

T3 sequence (P21439 whole entry): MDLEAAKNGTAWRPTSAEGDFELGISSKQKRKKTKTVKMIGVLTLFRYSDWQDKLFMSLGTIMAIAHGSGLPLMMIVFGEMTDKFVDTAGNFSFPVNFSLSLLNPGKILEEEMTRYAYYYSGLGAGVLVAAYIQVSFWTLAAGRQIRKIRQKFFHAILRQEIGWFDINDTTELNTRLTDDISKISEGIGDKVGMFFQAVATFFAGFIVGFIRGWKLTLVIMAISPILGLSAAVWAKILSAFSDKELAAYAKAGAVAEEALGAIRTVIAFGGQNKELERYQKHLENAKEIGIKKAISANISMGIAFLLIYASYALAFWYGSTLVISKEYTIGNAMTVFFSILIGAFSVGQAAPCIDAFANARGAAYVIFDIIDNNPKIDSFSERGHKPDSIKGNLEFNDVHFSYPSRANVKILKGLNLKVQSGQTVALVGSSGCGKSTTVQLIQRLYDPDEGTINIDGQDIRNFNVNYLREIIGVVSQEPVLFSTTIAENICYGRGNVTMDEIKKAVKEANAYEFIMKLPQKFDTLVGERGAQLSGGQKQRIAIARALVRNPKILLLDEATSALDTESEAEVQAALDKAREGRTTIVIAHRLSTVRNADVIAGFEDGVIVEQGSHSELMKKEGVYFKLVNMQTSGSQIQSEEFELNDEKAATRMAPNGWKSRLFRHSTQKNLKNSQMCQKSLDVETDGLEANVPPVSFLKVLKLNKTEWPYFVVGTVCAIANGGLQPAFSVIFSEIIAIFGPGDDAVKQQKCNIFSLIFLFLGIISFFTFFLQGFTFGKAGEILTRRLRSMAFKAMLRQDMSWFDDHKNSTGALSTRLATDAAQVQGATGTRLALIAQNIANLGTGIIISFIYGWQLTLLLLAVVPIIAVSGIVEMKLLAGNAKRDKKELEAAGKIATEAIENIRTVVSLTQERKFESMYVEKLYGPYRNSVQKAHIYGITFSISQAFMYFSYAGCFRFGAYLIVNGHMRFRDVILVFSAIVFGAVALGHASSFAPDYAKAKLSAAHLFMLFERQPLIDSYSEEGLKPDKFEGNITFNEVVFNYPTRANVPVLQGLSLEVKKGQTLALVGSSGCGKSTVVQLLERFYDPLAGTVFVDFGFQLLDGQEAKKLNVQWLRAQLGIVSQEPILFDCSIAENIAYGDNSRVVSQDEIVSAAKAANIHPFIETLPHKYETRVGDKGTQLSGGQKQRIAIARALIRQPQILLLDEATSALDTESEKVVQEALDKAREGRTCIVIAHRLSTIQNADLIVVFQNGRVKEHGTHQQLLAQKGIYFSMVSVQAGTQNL
T1 sequence (P78363 whole entry P1380L): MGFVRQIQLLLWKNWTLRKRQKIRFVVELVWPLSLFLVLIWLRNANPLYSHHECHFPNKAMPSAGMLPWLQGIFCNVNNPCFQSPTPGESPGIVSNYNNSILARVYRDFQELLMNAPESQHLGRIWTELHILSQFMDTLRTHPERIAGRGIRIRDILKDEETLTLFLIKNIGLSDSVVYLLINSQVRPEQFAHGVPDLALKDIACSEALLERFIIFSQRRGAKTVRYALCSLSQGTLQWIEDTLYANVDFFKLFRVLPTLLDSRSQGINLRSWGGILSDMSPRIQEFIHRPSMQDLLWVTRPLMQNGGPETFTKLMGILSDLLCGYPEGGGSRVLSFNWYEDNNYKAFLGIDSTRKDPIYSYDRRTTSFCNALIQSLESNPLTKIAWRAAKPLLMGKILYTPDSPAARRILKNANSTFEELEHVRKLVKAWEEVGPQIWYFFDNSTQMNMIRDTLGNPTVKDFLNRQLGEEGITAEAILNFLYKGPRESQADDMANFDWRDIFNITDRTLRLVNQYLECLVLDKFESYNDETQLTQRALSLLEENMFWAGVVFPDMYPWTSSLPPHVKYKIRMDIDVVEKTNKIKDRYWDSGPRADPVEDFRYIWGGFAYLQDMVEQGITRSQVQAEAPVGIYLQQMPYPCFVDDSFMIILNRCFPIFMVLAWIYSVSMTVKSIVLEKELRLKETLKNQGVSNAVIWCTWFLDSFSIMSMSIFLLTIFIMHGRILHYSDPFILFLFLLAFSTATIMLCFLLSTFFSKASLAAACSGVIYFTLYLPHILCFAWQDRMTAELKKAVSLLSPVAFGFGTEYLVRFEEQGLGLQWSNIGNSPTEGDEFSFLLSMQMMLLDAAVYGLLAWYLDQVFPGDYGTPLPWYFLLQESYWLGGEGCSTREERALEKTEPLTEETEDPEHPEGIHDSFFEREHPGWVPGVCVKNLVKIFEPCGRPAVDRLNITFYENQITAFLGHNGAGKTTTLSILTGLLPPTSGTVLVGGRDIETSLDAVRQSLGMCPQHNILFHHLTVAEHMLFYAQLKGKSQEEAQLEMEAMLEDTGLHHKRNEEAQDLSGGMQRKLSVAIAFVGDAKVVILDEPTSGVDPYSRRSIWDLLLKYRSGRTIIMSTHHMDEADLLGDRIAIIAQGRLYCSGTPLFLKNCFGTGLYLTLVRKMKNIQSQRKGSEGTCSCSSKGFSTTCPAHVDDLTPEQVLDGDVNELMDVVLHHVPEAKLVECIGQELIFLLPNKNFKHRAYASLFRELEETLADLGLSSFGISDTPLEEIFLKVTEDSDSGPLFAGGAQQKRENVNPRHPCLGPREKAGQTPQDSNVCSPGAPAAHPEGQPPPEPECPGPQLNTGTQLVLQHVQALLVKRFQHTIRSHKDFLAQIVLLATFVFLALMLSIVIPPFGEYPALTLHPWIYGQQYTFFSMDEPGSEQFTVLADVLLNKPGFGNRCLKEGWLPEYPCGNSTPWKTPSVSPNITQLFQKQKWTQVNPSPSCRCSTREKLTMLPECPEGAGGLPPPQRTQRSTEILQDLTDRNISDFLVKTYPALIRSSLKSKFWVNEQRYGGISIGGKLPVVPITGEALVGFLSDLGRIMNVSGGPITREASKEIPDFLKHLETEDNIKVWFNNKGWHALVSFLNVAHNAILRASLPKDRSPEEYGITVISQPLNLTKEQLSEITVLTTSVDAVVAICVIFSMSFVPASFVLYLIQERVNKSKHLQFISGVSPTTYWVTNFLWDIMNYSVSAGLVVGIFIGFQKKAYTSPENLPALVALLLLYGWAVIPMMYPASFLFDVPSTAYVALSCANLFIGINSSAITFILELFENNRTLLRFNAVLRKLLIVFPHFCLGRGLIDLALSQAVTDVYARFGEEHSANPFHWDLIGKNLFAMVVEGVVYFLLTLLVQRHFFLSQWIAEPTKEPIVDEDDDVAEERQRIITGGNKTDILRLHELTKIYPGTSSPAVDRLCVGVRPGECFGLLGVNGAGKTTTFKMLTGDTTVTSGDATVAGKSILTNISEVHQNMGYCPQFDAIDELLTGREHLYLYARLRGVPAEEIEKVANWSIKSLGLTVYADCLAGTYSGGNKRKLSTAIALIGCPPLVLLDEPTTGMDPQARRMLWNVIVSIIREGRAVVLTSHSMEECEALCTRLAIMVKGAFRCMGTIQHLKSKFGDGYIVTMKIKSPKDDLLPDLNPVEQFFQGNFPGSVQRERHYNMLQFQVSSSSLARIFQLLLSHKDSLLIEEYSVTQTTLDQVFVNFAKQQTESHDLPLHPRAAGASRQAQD

By EC50 is commonly meant the concentration at which the effect is half-maximal. With `Cc1cc(OC2CC2)nc(C)c1Oc1nc(-c2cncc(C#N)c2)ccc1NS(C)(=O)=O` [Compound I-132], the EC50 at ABCA4 P1380L, at ABCD2 WT and at ABCB4 WT was below 1000 nM throughout.

As for `Cc1cc(C)c(Oc2nc(-c3cncc(N4CC(F)C4)c3)ccc2NS(C)(=O)=O)c(C)n1` [Compound I-185], the half-maximal effective concentration (EC50) at ABCA4 P1380L, on ABCD2 WT and on ABCB4 WT was below 1000 nM throughout.

With `Cc1nc(C2CC2)c(Cl)cc1Oc1nc(-c2cncc(C#N)c2)ccc1NS(C)(=O)=O` [Compound I-120], the EC50 is below 1000 nM on ABCA4 P1380L, 1000 to 10000 nM at ABCD2 WT and below 25000 nM at ABCB4 WT.

With `Cc1cc(C)c(Oc2nc(-c3cncc(Cl)c3)ccc2NS(=O)(=O)C2COC2)c(C)n1` [Compound I-237], the results for the EC50 on ABCA4 P1380L, on ABCD2 WT and on ABCB4 WT were below 1000 nM, below 1000 nM and below 25000 nM, respectively.

Consider `Cc1cc(C)c(Oc2nc(-c3cncc(C#N)c3)ccc2N(C)S(C)(=O)=O)c(C)n1` [Compound I-166], for which the EC50 at ABCA4 P1380L, on ABCD2 WT and at ABCB4 WT was 1000 to 10000 nM each time.

`COc1nc(C)cc(C)c1Oc1nc(-c2cncc(C#N)c2)ccc1NS(C)(=O)=O` [Compound I-209]: the EC50 at ABCA4 P1380L, at ABCD2 WT and at ABCB4 WT was below 1000 nM in each case.

`Cc1cc(C(F)(F)F)nc(C)c1Oc1nc(-c2ccnc(C#N)c2)ccc1NS(C)(=O)=O` [Compound I-219]: the EC50 at ABCA4 P1380L, at ABCD2 WT and at ABCB4 WT was below 1000 nM in each case.

As to `Cc1nc(C(F)(F)F)nc(C)c1Oc1nc(-c2cncc(C#N)c2)ccc1NS(C)(=O)=O` [Compound I-200], the EC50 on ABCA4 P1380L, on ABCD2 WT and on ABCB4 WT was below 1000 nM in each case.

Turning to `Cc1cc(C2CC2)nc(C)c1Oc1nc(-c2cncc(Cl)c2)ccc1NS(=O)(=O)C1COC1` [Compound I-236], the results for the concentration giving a half-maximal response (EC50) at ABCA4 P1380L, on ABCD2 WT and at ABCB4 WT were below 25000 nM, below 1000 nM and below 25000 nM, respectively.

As for `Cc1cc(C2CC2)c(Oc2nc(-c3cncc(C#N)c3)ccc2NS(C)(=O)=O)c(C)n1` [Compound I-171], the concentration for a half-maximal effect (EC50) at ABCA4 P1380L, at ABCD2 WT and on ABCB4 WT was below 1000 nM each time.

Take `Cc1nc(OC2CC2)c(C(F)(F)F)cc1Oc1nc(-c2cncc(C#N)c2)ccc1NS(C)(=O)=O` [Compound I-178]: the EC50 is above 25000 nM on ABCA4 P1380L, 1000 to 10000 nM on ABCD2 WT and below 1000 nM at ABCB4 WT.

With `Cc1cc(C(F)F)nc(C)c1Oc1nc(-c2cncc(Cl)c2)ccc1NS(C)(=O)=O` [Compound I-202], the EC50 on ABCA4 P1380L is below 1000 nM; on ABCD2 WT, above 25000 nM; at ABCB4 WT, below 25000 nM.

For the compound `Cc1cc(OC(F)(F)F)nc(C)c1Oc1nc(-c2cncc(C#N)c2)ccc1NS(C)(=O)=O` [Compound I-131], the concentration giving a half-maximal response (EC50) at ABCA4 P1380L, on ABCD2 WT and on ABCB4 WT was below 1000 nM each time.

Take `Cc1nc(C)c(Oc2nc(-c3cncc(C4CC4)c3)ccc2NS(C)(=O)=O)c(C)n1` [Compound I-193]: the concentration for a half-maximal effect (EC50) at ABCA4 P1380L, on ABCD2 WT and on ABCB4 WT was below 1000 nM in each case.

In the case of `COCc1cncc(-c2ccc(NS(C)(=O)=O)c(Oc3c(C)cc(C)nc3C)n2)c1` [Compound I-231], the EC50 was 1000 to 10000 nM at ABCA4 P1380L, below 1000 nM on ABCD2 WT and 1000 to 10000 nM on ABCB4 WT.

As for `Cc1cc(C)c(Oc2nc(-c3cncc(CO)c3)ccc2NS(C)(=O)=O)c(C)n1` [Compound I-227], the concentration for a half-maximal effect (EC50) on ABCA4 P1380L was 1000 to 10000 nM; at ABCD2 WT, 1000 to 10000 nM; on ABCB4 WT it was below 25000 nM.

Take `Cc1nc(C(F)F)nc(C)c1Oc1nc(-c2cncc(Cl)c2)ccc1NS(C)(=O)=O` [Compound I-175]: the EC50 is below 1000 nM on ABCA4 P1380L, above 25000 nM on ABCD2 WT and below 1000 nM on ABCB4 WT.

As for `Cc1cc(C)c(Oc2nc(-c3cncc(N4CCOCC4)c3)ccc2NS(C)(=O)=O)c(C)n1` [Compound I-201], the EC50 on ABCA4 P1380L is 1000 to 10000 nM; at ABCD2 WT it was 1000 to 10000 nM; at ABCB4 WT it was at least 25000 nM.

`CCS(=O)(=O)Nc1ccc(-c2cncc(C#N)c2)nc1Oc1c(C)cc(C(F)(F)F)nc1C` [Compound I-217]: the 50% effective concentration (EC50) on ABCA4 P1380L, at ABCD2 WT and on ABCB4 WT was below 1000 nM throughout.

As to `Cc1cc(Oc2nc(-c3cncc(C#N)c3)ccc2NS(C)(=O)=O)c(C)nc1C` [Compound I-226], the concentration for a half-maximal effect (EC50) is above 25000 nM on ABCA4 P1380L, below 1000 nM at ABCD2 WT and below 1000 nM on ABCB4 WT.

As for `Cc1cc(C2CCC2)nc(C)c1Oc1nc(-c2cncc(C#N)c2)ccc1NS(C)(=O)=O` [Compound I-208], the EC50 on ABCA4 P1380L is below 1000 nM; on ABCD2 WT it was above 25000 nM; on ABCB4 WT it was below 1000 nM.

`Cc1cc(C(F)F)nc(C)c1Oc1nc(-c2cncc(C#N)c2)ccc1NS(=O)(=O)C1CC1` [Compound I-199]: the EC50 on ABCA4 P1380L is below 1000 nM; on ABCD2 WT, 1000 to 10000 nM; on ABCB4 WT, below 1000 nM.

For `Cc1nc(N2CC(S(C)(=O)=O)C2)nc(C)c1Oc1nc(-c2cncc(C#N)c2)ccc1NS(C)(=O)=O` [Compound I-169], the EC50 at ABCA4 P1380L lay within 1000 to 10000 nM; at ABCD2 WT it was 10000 to 25000 nM; on ABCB4 WT, 1000 to 10000 nM.

In the case of `Cc1cc(C)c(Oc2nc(-c3ccn(C)c(=O)c3)ccc2NS(C)(=O)=O)c(C)n1` [Compound I-186], the 50% effective concentration (EC50) at ABCA4 P1380L was above 25000 nM; on ABCD2 WT it was above 25000 nM; on ABCB4 WT, at least 25000 nM.

Regarding `Cc1nc(C(F)F)nc(C)c1Oc1nc(-c2cncc(C#N)c2)ccc1NS(C)(=O)=O` [Compound I-173], the EC50 on ABCA4 P1380L, at ABCD2 WT and on ABCB4 WT was below 1000 nM each time.

Turning to `Cc1cc(C)c(Oc2nc(-c3cncc(C#N)c3)ccc2N2CCCS2(=O)=O)c(C)n1` [Compound I-221], the concentration for a half-maximal effect (EC50) at ABCA4 P1380L is 1000 to 10000 nM; on ABCD2 WT it was above 25000 nM; at ABCB4 WT, at least 25000 nM.

`Cc1nc(C2CCC2)nc(C)c1Oc1nc(-c2cncc(C#N)c2)ccc1NS(C)(=O)=O` [Compound I-181]: the EC50 on ABCA4 P1380L is below 1000 nM; on ABCD2 WT, above 25000 nM; at ABCB4 WT, below 1000 nM.

`Cc1cc(C(F)F)nc(C)c1Oc1nc(-c2cncc(C#N)c2)ccc1NS(C)(=O)=O` [Compound I-230]: the EC50 on ABCA4 P1380L, on ABCD2 WT and on ABCB4 WT was below 1000 nM in each case.

With `Cc1cc(Oc2nc(-c3cncc(C#N)c3)ccc2NS(C)(=O)=O)c(C)nc1C1CC1` [Compound I-127], the EC50 on ABCA4 P1380L is 1000 to 10000 nM; at ABCD2 WT it was above 25000 nM; at ABCB4 WT, below 1000 nM.

Turning to `Cc1nc(C)c(C2CC2)cc1Oc1nc(-c2cncc(C#N)c2)ccc1NS(C)(=O)=O` [Compound I-229], the EC50 at ABCA4 P1380L was 1000 to 10000 nM; on ABCD2 WT, 1000 to 10000 nM; at ABCB4 WT, below 25000 nM.

With `Cc1cc(C)c(Oc2nc(-c3cncc(C4CN(C)C4)c3)ccc2NS(C)(=O)=O)c(C)n1` [Compound I-194], the EC50 on ABCA4 P1380L is 10000 to 25000 nM; on ABCD2 WT, above 25000 nM; at ABCB4 WT it was at least 25000 nM.

For the compound `Cc1cc(C)c(Oc2nc(-c3cncc(C(C)(C)O)c3)ccc2NS(C)(=O)=O)c(C)n1` [Compound I-220], the EC50 at ABCA4 P1380L is above 25000 nM; on ABCD2 WT it was above 25000 nM; on ABCB4 WT, at least 25000 nM.

For the compound `COc1cc(-c2ccc(NS(C)(=O)=O)c(Oc3c(C)cc(C)nc3C)n2)ccn1` [Compound I-188], the EC50 on ABCA4 P1380L was 1000 to 10000 nM; at ABCD2 WT, 1000 to 10000 nM; at ABCB4 WT, at least 25000 nM.

The values are drawn from patent US20250228835A1, “PYRIDINYLOXYPYRIDINES AND RELATED COMPOUNDS AND THEIR USE IN TREATING MEDICAL CONDITIONS” (Rectify Pharmaceuticals, Inc., priority 2024, published 2025).
